Our source for the Kd values is article PMC7068051, “Thermal stability, ligand binding and allergenicity data of Mus m 1.0102 allergen and its cysteine mutants” (Data in Brief, 2020).

Holding throughout (experiment): direct fluorescence titration (ex […] nm, em […] nm), nonlinear regression
What all share (assay type): binding

Assay [1] concerns the target T1, Mus m 1.0102 (Mus musculus, UniProt P11589).
T1 construct: gene Mup2; recombinant lipocalin allergen
T1 sequence (P11589 19-180): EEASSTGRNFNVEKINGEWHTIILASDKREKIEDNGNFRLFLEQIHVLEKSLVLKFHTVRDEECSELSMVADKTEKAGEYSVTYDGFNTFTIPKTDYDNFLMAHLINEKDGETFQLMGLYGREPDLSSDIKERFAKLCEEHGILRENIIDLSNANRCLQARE
The note with it: 20 nM protein, Tris-HCl 10 mM pH 7.2, 25 °C; hydrophobic pocket.

In assay [2] the target is T2, Mus m 1.0102 (Mus musculus, UniProt P11589, C156A/C175A).
T2 construct: gene Mup2; recombinant lipocalin allergen
T2 sequence (P11589 19-180 C156A/C175A): T1 sequence (P11589 19-180) with C138A, C157A
The conditions noted are these: 20 nM protein, Tris-HCl 10 mM pH 7.2, 25 °C; hydrophobic pocket.

For assay [3], the target named is T3, Mus m 1.0102 (Mus musculus, UniProt P11589, C175A).
T3 construct: gene Mup2; recombinant lipocalin allergen
T3 sequence (P11589 19-180 C175A): T1 sequence (P11589 19-180) with C157A

Assay [4] has as its target T4, Mus m 1.0102 (Mus musculus, UniProt P11589, C156A).
T4 construct: gene Mup2; recombinant lipocalin allergen
T4 sequence (P11589 19-180 C156A): T1 sequence (P11589 19-180) with C138A
The note with it: 20 nM protein, Tris-HCl 10 mM pH 7.2, 25 °C; hydrophobic pocket.

Where a chain is given by its changes, count along the chain named.

As usually defined, the Kd is the free concentration of one partner at which half of the binding sites on the other are occupied at equilibrium, for simple one-to-one binding. Higher therefore signals weaker binding. For `c1ccc(Nc2cccc3ccccc23)cc1` [N-Phenyl-1-naphthylamine], the dissociation constant (Kd) at Mus m 1.0102 [1] turned out to be 25 ± 1.5 nM; at Mus m 1.0102 [2], 45.2 ± 4 nM; on Mus m 1.0102 [3], 85.5 ± 13.7 nM; on Mus m 1.0102 [4], 33.8 ± 6.4 nM.
